Where “and” joins values, the source holds several entries; their conditions need not be identical. Equal entries are not always repeated. Where two headings read alike, the source gives them in different places.
How the values were obtained:
MAO-A = details: Figure 1, read-out: MAO-A inhibition, cited from earlier work
hMAO-A [1] = target: T1, hMAO-A (Homo sapiens, UniProt P21397); assay: Reversibility inhibition study (dilution method); type: biochemical; set-up: purchased Sigma-Aldrich; details: for reversibility of hMAO-A inhibition: dilution method
T1 sequence (P21397 1-527): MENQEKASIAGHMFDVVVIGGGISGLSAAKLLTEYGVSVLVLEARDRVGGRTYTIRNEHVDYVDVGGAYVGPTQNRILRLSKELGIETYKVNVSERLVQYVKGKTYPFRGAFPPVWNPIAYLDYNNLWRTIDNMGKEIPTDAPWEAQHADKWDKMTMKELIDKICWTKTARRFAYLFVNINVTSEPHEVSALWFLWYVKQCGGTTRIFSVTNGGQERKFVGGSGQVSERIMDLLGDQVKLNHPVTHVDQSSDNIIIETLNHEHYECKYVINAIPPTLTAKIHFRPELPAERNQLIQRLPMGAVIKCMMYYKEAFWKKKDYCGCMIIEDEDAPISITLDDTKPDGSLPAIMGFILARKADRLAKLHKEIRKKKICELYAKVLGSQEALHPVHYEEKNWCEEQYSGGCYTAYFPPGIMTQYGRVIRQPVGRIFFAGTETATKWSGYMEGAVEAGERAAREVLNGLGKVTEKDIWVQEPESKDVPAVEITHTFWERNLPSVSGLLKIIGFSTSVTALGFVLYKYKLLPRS
Procedure: Reversibility inhibition investigations were conducted using dilution methods as per the reported protocol, and all experiments were performed in triplicate. […] Substrate and buffer solutions were used for the dilution.

[2] = DPPH free radical scavenging antioxidant assay; details: for antioxidant potential in the DPPH assay: concentration not given
Procedure: H2O2 produced during metabolic events in the brain may be crucial for signaling and metabolic functions. The compounds were screened to check their potential to inhibit ROS through the DPPH assay. […] However, further studies are required to confirm this effect.
The DPPH approach, which gauges the free radical scavenging activity, was used to evaluate the antioxidant properties of the compounds. The test was performed according to the literature method. The stock solution of DPPH (0.5 mM) was prepared, and methanol was used to create each dilution. The different concentrations (10, 25, 50, 75, and 100 μM) of the test compounds (C1–C15) were prepared and compared with the standard ascorbic acid. The percentage antioxidant activity of the compounds was calculated using the following formula: % Antioxidant activity = [(Aabsorbance − Atest)/Aabsorbance] × 100.

hMAO-B = target: T2, hMAO-B (Homo sapiens, UniProt P27338); assay: MAO inhibition assay (Amplex Red, fluorimetric), MAO-B
T2 sequence (P27338 1-520): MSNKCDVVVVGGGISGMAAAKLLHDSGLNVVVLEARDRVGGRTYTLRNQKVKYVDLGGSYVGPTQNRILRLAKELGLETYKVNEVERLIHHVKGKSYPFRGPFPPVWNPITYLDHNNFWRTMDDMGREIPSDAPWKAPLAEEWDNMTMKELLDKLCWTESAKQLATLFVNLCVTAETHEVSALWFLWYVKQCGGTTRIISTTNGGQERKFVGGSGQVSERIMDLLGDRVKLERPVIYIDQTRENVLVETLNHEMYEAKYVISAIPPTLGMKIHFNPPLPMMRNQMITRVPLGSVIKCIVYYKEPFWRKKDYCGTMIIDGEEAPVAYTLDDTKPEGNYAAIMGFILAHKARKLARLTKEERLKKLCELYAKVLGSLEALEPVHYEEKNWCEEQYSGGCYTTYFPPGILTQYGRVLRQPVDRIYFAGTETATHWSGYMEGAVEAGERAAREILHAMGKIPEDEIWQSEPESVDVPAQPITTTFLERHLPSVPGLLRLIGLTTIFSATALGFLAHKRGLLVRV

hMAO-A [3] = target: T1, hMAO-A; assay: MAO inhibition assay (Amplex Red, fluorimetric), MAO-A; details: for inhibition at 20 µM: read-out: Percentage Inhibition at 20 μM MAO-A, 20 μM
hMAO-A [4] = target: T1, hMAO-A; set-up: purchased Sigma-Aldrich; details: Figure 1, read-out: hMAO-A inhibition; cited from earlier work
[5] = 0.1 × IC50, after 100 times dilution with tyramine substrate
[6] = 1 × IC50, after 100 times dilution with tyramine substrate
[7] = read-out: Percentage Inhibition at 20 μM MAO-B

SMILES: COc1cc(C(=O)/C=C/c2ccc([N+](=O)[O-])cc2)cc(OC)c1OC [Compound 5]
- Ki (MAO-A; Ki): 3.47 ± 0.09 µM

SMILES: COc1cc(OC)c(/C=C/C(=O)c2ccc(F)cc2)c(OC)c1 [Compound 4]
- IC50 (MAO-A): 0.444 ± 0.039 µM

SMILES: O=C(/C=C/c1ccc(F)cc1F)c1ccc(N2CCOCC2)cc1 [Compound C14, (E)-3-(2,4-Difluorophenyl)-1-(4-morpholinophenyl)prop-2-en-1-one]
- % MAO-A activity (hMAO-A [1]; [5]): 65.33%
- % MAO-A activity (hMAO-A [1]; [6]): 35.76%
- % MAO-A activity (hMAO-A [1]; 10 × IC50, before dilution): 6.67%
- % MAO-A activity (hMAO-A [1]; 100 × IC50, before dilution): 3.28%
- reversibility of hMAO-A inhibition (hMAO-A [1]): reversibly inhibit
- % Antioxidant Activity ([2]; 10 µM): 10.51%
- % Antioxidant Activity ([2]; 25 µM): 18.21%
- % Antioxidant Activity ([2]; 50 µM): 41.12%
- % Antioxidant Activity ([2]; 75 µM): 50% and 53.12%
- % Antioxidant Activity ([2]; 100 µM): 59.51%
- antioxidant potential in the DPPH assay [2]: more than 50%
- inhibition at 20 µM (hMAO-B; read-out: IC50 Values MAO-B): < 50%
- inhibition at 20 µM (hMAO-B; [7]): 35.3%
- IC50 (hMAO-A [3]): 7.91 ± 0.08 µM
- Percentage Inhibition at 20 μM MAO-A (hMAO-A [3]): 75.45%
- inhibition at 20 µM (hMAO-A [3]): 75.4%

SMILES: COc1cc(OC)c(/C=C/C(=O)c2ccc(Br)cc2)c(OC)c1 [Compound 1]
- IC50 (MAO-A): 0.56 ± 0.076 µM

SMILES: CCOc1ccc(C(=O)/C=C/c2ccc(F)cc2)cc1 [Compound 2]
- IC50 (hMAO-A [4]): 4.63 ± 0.15 µM

SMILES: O=C(/C=C/c1ccc(C(F)(F)F)cc1)c1ccc[nH]1 [Compound 3]
- IC50 (MAO-A): 3.81 ± 0.387 µM

SMILES: O=C(/C=C/c1ccc(F)c(F)c1)c1ccc(N2CCOCC2)cc1 [Compound C6, (E)-3-(3,4-Difluorophenyl)-1-(4-morpholinophenyl)prop-2-en-1-one]
- % MAO-A activity (hMAO-A [1]; [5]): 68.83%
- % MAO-A activity (hMAO-A [1]; [6]): 38.95%
- % MAO-A activity (hMAO-A [1]; 10 × IC50, before dilution): 8.32%
- % MAO-A activity (hMAO-A [1]; 100 × IC50, before dilution): 3.41%
- reversibility of hMAO-A inhibition (hMAO-A [1]): reversibly inhibit
- % Antioxidant Activity ([2]; 10 µM): 12.25%
- % Antioxidant Activity ([2]; 25 µM): 24.46%
- % Antioxidant Activity ([2]; 50 µM): 36.03%
- % Antioxidant Activity ([2]; 75 µM): 50% and 53.39%
- % Antioxidant Activity ([2]; 100 µM): 55.16%
- antioxidant potential in the DPPH assay [2]: more than 50%
- inhibition at 20 µM (hMAO-B; read-out: IC50 Values MAO-B): < 50%
- inhibition at 20 µM (hMAO-B; [7]): 31.9%
- IC50 (hMAO-A [3]): 8.45 ± 0.19 µM
- Percentage Inhibition at 20 μM MAO-A (hMAO-A [3]): 71.67%
- inhibition at 20 µM (hMAO-A [3]): 71.6%

Source: publication PMC11945657, “Microwave-Assisted Synthesis of Morpholine-Based Chalcones as Reversible MAO-A Inhibitors in the Management of Mental Depression” (Pharmaceuticals, 2025)
